Laboratory results published in patent US8183201B2 (priority 2006, dated 2012).
Where two headings read alike, the source gives them in different places.

Columns and labels:
integrin α5β1 = molecular target: T1, integrin α5β1 (Homo sapiens, UniProt P05556+P08648); type: cell-based
T1 construct: Human erythroleukemia K562 cells were purchased from ATCC; host or cells: K562

[1] = tested on: osteoclast precursors (bone marrow hematopoietic cells); type: cell-based, SD rats; settings: read-out: IC50 Osteoclastogenesis
[2] = tested on: ovariectomized (OVX) mice; design: species or system ICR mice; settings: mouse, in vivo
[3] = tested on: ovariectomized (OVX) rats; settings: rat, in vivo, po, 1.5 mg/kg
Calcitonin = molecular target: T2, Calcitonin (Homo sapiens, UniProt P30988); type: binding
T2 construct: MDS Pharma services, Taipei, Taiwan (contract assay)
T2 sequence (P30988 25-474): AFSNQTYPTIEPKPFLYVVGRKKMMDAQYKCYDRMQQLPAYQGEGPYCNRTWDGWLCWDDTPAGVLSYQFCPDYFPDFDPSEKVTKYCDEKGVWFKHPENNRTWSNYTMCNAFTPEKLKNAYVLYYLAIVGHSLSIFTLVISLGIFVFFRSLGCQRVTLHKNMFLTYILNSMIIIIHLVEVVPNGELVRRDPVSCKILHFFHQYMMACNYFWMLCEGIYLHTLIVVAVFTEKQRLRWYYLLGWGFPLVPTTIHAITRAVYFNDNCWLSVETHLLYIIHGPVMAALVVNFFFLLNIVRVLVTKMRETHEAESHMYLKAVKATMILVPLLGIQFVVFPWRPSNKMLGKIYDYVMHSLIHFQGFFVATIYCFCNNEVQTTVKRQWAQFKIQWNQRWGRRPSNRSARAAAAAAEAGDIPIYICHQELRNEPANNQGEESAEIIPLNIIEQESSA

Endothelin ETB = molecular target: T3, Endothelin ETB (Homo sapiens, UniProt P24530); type: binding
T3 construct: MDS Pharma services, Taipei, Taiwan (contract assay)
T3 sequence (P24530 27-442): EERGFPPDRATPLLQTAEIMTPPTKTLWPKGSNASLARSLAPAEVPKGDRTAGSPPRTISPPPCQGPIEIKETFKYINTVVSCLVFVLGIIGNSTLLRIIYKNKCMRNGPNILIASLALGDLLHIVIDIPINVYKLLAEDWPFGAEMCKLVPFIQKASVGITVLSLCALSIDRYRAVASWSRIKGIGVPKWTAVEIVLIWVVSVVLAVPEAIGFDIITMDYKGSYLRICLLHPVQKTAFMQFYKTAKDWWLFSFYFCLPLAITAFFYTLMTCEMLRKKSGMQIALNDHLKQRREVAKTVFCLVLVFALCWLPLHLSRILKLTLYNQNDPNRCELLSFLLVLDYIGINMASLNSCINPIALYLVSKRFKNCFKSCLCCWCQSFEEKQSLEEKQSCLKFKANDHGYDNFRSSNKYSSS

Insulin = molecular target: T4, Insulin (Rattus norvegicus, UniProt P15127); type: binding
T4 construct: MDS Pharma services, Taipei, Taiwan (contract assay)

Leptin = molecular target: T5, Leptin (Homo sapiens, UniProt P48357); type: binding
T5 construct: MDS Pharma services, Taipei, Taiwan (contract assay)
T5 sequence (P48357 22-1165): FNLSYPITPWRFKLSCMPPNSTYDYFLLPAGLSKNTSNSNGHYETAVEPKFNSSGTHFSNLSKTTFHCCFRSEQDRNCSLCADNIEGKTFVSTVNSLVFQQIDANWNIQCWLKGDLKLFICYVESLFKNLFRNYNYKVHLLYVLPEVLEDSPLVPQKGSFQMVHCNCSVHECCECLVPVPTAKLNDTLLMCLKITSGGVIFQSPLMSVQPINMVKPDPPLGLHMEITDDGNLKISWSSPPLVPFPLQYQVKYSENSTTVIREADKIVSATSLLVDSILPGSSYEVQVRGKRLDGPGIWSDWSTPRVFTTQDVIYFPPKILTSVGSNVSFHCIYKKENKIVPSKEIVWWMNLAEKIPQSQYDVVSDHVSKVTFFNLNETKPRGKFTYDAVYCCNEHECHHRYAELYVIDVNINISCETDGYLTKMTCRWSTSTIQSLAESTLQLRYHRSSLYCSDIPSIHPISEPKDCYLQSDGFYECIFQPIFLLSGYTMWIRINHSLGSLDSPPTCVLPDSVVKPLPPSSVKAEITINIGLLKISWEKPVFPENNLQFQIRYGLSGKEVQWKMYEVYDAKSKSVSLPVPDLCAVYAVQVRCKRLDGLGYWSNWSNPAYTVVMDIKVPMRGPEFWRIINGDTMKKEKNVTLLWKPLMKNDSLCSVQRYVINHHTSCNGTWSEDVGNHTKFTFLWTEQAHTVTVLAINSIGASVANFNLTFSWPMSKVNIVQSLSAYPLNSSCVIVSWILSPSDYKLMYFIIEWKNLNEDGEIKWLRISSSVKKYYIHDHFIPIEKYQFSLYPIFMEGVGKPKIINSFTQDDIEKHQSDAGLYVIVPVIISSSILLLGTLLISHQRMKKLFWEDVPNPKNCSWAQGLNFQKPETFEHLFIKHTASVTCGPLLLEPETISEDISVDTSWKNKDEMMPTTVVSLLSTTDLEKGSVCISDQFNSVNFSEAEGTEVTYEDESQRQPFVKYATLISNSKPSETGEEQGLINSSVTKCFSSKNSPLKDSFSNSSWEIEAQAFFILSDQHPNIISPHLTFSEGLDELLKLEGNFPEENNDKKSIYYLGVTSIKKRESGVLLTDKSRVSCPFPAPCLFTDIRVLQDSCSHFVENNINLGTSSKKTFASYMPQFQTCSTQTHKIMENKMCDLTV

Sodium Channel (Site 2) = type: binding
TGF-β = type: binding
[4] = tested on: hypoxic-induced angiogenesis; design: species or system mice; settings: mouse, in vivo
[5] = mouse, in vivo
[6] = tested on: human breast cancer MDA-MB-231 cells; settings: mouse, in vivo

T4 sequence (P15127 27-1383): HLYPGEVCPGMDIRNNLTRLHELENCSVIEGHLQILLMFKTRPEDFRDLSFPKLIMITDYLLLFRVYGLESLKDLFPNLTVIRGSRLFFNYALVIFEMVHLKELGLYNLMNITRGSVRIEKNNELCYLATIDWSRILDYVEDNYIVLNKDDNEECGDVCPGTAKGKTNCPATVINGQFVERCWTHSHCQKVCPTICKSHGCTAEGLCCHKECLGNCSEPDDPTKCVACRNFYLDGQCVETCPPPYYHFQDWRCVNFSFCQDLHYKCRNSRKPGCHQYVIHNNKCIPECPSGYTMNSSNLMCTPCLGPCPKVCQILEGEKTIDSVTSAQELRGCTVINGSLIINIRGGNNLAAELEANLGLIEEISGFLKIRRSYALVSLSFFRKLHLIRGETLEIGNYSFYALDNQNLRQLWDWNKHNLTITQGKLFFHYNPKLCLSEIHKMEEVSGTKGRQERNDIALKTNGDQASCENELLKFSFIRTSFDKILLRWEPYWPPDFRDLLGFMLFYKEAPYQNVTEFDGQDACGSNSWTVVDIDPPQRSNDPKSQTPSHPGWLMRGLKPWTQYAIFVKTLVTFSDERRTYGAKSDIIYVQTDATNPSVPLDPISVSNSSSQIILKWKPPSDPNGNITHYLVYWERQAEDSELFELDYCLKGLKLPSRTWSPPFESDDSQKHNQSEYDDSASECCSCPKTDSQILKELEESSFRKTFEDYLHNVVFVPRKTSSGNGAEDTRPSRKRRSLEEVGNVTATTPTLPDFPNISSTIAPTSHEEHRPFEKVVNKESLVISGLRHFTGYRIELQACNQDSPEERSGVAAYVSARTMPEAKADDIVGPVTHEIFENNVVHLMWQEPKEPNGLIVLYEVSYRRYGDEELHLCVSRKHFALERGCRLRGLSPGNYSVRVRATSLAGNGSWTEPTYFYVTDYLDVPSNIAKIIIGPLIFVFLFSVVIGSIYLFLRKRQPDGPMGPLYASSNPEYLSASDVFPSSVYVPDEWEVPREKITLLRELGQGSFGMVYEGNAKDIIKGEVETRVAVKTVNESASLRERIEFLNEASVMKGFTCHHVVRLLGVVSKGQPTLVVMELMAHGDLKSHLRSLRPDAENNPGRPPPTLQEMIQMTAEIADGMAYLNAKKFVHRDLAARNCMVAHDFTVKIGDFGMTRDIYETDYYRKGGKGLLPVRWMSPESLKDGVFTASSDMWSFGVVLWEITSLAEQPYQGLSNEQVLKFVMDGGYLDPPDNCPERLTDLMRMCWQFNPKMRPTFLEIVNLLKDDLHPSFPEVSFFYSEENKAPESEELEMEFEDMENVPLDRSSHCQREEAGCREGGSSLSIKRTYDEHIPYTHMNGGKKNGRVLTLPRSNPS
T1 sequence (P08648 42-894 limits assumed): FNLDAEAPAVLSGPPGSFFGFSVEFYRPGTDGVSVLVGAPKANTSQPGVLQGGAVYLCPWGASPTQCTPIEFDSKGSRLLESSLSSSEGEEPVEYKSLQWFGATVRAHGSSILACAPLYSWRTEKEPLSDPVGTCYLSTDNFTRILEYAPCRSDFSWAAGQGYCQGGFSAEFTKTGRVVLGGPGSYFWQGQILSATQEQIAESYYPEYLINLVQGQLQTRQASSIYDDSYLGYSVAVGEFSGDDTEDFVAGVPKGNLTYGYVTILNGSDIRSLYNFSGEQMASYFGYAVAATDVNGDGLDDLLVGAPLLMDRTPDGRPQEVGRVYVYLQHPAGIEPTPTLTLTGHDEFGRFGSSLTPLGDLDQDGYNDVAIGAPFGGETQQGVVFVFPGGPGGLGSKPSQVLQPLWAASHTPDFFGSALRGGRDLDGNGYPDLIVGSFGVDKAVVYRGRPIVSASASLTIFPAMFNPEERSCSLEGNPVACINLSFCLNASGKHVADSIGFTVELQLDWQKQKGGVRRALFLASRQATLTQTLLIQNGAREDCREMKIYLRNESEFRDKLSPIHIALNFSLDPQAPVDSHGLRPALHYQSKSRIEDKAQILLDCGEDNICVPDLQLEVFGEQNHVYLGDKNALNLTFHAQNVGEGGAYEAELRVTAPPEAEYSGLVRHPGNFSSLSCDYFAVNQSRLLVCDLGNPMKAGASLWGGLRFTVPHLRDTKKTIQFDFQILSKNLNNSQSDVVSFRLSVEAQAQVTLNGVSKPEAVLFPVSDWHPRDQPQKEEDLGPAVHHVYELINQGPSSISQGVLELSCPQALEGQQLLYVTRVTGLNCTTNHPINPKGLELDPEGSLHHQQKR
T1 sequence (P08648 895-1049 partner limits assumed): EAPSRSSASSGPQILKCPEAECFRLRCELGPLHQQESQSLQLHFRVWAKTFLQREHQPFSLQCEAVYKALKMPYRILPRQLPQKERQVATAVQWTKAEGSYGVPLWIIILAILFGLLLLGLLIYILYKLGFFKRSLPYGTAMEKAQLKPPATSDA
T1 sequence (P05556 21-798): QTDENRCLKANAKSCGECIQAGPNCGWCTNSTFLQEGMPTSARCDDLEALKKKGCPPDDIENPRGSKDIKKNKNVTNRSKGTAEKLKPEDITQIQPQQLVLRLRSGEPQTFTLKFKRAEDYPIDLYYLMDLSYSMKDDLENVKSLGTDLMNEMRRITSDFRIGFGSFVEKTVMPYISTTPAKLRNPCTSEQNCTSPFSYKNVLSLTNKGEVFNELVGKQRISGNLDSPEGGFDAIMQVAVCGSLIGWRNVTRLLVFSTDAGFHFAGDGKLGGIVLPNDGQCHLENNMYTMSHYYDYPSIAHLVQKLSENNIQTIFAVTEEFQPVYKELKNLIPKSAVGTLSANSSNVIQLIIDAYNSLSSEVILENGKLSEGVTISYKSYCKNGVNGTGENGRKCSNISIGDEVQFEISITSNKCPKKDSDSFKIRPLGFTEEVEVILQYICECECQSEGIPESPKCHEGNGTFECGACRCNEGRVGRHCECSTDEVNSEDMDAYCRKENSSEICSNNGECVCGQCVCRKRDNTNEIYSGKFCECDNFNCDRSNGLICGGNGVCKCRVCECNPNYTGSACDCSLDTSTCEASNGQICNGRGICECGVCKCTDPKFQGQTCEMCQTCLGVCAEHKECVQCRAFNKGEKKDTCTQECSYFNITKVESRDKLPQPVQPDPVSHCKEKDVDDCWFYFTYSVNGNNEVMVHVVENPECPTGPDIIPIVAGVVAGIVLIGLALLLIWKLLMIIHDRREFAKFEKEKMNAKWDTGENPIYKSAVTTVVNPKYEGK

Substance: RD: rhodostomin variant having a RGD motif variant ^48PRLDMP^53, SEQ ID NO: 36
- increase of IC50 in inhibition of integrin α5β1 as compared to Rho (integrin α5β1): > 10 fold
- IC50 [1]: 3.32 nM
- BMC [2]: 0.582 ± 0.009 g
- BMD [2]: 0.085 ± 0.002 g/cm^2
- C-terminal telopeptide of COL(1)α1 chain [2]: 533 ± 27.4 ng/mL
- BMC ([2]; po, 1.5 mg/kg): 0.627 ± 0.008 g
- BMD ([2]; po, 1.5 mg/kg): 0.091 ± 0.001 g/cm^2
- C-terminal telopeptide of COL(1)α1 chain ([2]; po, 1.5 mg/kg): 391 ± 8.3 ng/mL
- BMC, Femur [3]: 0.441 ± 0.018 g
- BMC, Tibia [3]: 0.299 ± 0.011 g
- BMD, Femur [3]: 0.135 ± 0.004 g/cm^2
- BMD, Tibia [3]: 0.113 ± 0.009 g/cm^2
- Bone length, Femur [3]: 3.71 ± 0.06 mm
- Bone length, Tibia [3]: 4.01 ± 0.03 mm
- Bone volume [3]: 16.3 ± 2.7 %
- Wet weight, Femur [3]: 985.3 ± 9.8 mg
- Wet weight, Tibia [3]: 749 ± 20.1 mg
- ovariectomy-induced increase in osteoclast activity (serum C-terminal telopeptide of type-I collagen) [3]: reversed the ovariectomy-induced increase in osteoclast activity
- Inhibition, Calcitonin (Calcitonin): 4%
- Inhibition, Endothelin ETB (Endothelin ETB): 10%
- Inhibition, Insulin (Insulin): −6%
- Inhibition, Leptin (Leptin): 1%
- Inhibition, Sodium Channel (Site 2) (Sodium Channel (Site 2)): 2%
- Inhibition, TGF-β (TGF-β): 14%
- reduction of angiogenesis (blood vessel profiles in the inner retina) compared to vehicle ROP group [4]: about 46%
- effect on tail bleeding (clotting) time [5]: only slightly affected the clotting time
- MDA-MB-231-induced tumor growth in bone [6]: inhibited MDA-MB-231-induced increase in tumor growth in bone
- blood counts of RBC, WBC and platelet [6]: did not affect the blood counts of RBC, WBC and platelet
- tumor-induced hypercalcemia [6]: prevented
- tumor-induced increase in osteoclast activity [6]: prevented the tumor-induced increase in osteoclast activity
